Laboratory results published in PubChem BioAssay (NCI).
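Cultured in 96-well plates, cells were exposed to test compound for 48 hours across five concentrations. GI50 is the concentration that inhibits growth by half. TGI is the concentration that stops growth completely.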

Legend:
Assay in all cases: NCI tumour cell line growth inhibition, 48 h
[1] = system: SNB-75 CNS
[2] = system: SF-539 CNS
[3] = system: M14 melanoma
[4] = system: SK-MEL-28 melanoma
[5] = system: HOP-92 NSCLC
[6] = system: NCI-H23 lung
[7] = system: OVCAR-3 ovarian
[8] = system: OVCAR-5 ovarian
[9] = system: CAKI-1 renal
[10] = system: RXF 393 renal

SMILES | TGI [1] [µM] | TGI [2] [µM] | TGI [3] [µM] | TGI [4] [µM] | TGI [5] [µM] | TGI [6] [µM] | TGI [7] [µM] | TGI [8] [µM] | TGI [9] [µM] | GI50 [1] [µM] | GI50 [2] [µM] | GI50 [3] [µM] | GI50 [4] [µM] | GI50 [10] [µM] | TGI [10] [µM] | GI50 [6] [µM] | GI50 [7] [µM] | GI50 [8] [µM] | GI50 [9] [µM] | GI50 [5] [µM]
Nc1nc(CCl)nc(Nc2ccccc2)n1 | 50.3 | 70.7 | 32.8 | 33.2 | 33.6 | 38.7 | 32.8 | 43.4 | 24.8 |  |  |  |  |  |  |  |  |  |  | 
Cn1cc(C2=C(c3cn(CCCCCN)c4ccccc34)C(=O)NC2=O)c2ccccc21 | > 25 | 21.6 | > 25 | > 25 |  | > 25 | > 23.2 | > 25 | > 25 | 1.08 | 6.42 | 12.4 | 12.7 | 3.66 | 9.47 | 9.98 | 7.8 | > 25 | 8.25 | 
O=S1OC2(c3ccccc3-c3ccccc32)c2ccccc21 (centres undefined) | > 100 | > 100 | > 100 | > 100 |  | > 100 | > 100 | > 100 |  |  |  |  |  |  | > 100 |  |  |  |  | 
CC(C)OC(=O)NNc1cc(Cl)ccc1Cl | > 100 | > 100 | > 100 | > 100 | > 100 | > 100 | > 100 | > 100 | > 100 |  |  |  |  |  |  |  |  |  |  | 
COc1ccc(-c2c[nH]c(=S)n2-c2ccc(OC)cc2)cc1 | > 50 | > 50 |  | > 50 |  | > 50 | > 50 | > 50 | > 50 | > 50 | > 50 |  | > 50 | > 50 | > 50 | > 50 | > 50 | > 50 | > 50 | 
CN1NC(=Nc2ccccc2)Sc2c1cnn(-c1ccccc1)c2=O |  | > 100 | > 100 |  | > 100 | > 100 | 90.6 |  |  |  |  |  |  |  | > 100 |  |  |  |  | 
CN(C)C(=S)/N=c1\ss/c(=N\C(=S)N(C)C)n1-c1ccc(Cl)c(Cl)c1 | 61.2 | > 100 | > 100 | > 100 |  | > 100 | > 100 | > 100 | > 100 |  |  |  |  |  | > 100 |  |  |  |  | 
C[n+]1cc(C(O)c2ccc3c(c2)OCO3)c2ccccc2c1 (centres undefined) | > 100 | > 100 | 91.7 |  |  |  | > 100 | > 100 | 69.4 |  |  |  |  |  | 62.5 |  |  |  |  | 
Cc1cc(C)c(C2[C@H]3C(=O)N(c4ccc(Cc5ccc(N6C(=O)[C@@H]7ON(c8ccccc8)C(c8c(C)cc(C)cc8C)[C@@H]7C6=O)cc5)cc4)C(=O)[C@H]3ON2c2ccccc2)c(C)c1 (some centres undefined) | > 100 | > 100 | > 100 | > 100 |  | > 100 | > 100 | > 100 | > 100 |  |  |  |  |  | > 100 |  |  |  |  | 
COCCOc1cnc2ccn([C@H](C)c3nnc4c(F)cc(-c5cnn(C)c5)cn34)c(=O)c2c1 | > 100 | > 100 | > 100 | > 100 | > 100 | > 100 | > 100 | > 100 |  | 34.9 | > 100 | > 100 | > 100 | > 100 | > 100 | > 100 | > 100 | > 100 |  | 54.9
